{"source": "patent US9095541B2", "about": "“Brain tumor targeting peptides and methods” (Arch Cancer Therapeutics, Inc., priority 2009, dated 2015)", "key": {"U87R xenografts": {"system": "U87R xenografts", "assay": "In vivo phage homing, U87R xenografts, anti-M13 immunohistochemistry", "parameters": "species or system SCID mice", "conditions": "H10 phage perfused in mice carrying U87R tumors; signal within tumor mass or peritumoral; method uses mannitol pretreatment", "description": "FIG. 6A illustrates the in vivo homing capability of H10. Invasive U87R or non-invasive U87T cells were grown in the right brain hemisphere of SCID mice. Once tumors were established, mice were anaesthetized and perfused with H10 phage for 10 minutes. Unbound phage was flushed from the system with PBS. Brains were cryosectioned and immunohistochemically stained for M13 phage or human nuclear antigen (hNA).\nThe ability of the selected phage or their corresponding peptides was examined for their ability to ‘home’ to their respective U87R or BTIC glioma cell targets in vivo, according to their ability to detect glioma cells in an orthotopic xenograft model. In the case of H10, SCID mice carrying U87R or U87T xenografts were injected with the test phage for ten minutes, which was subsequently perfused with PBS to remove any unbound particles.\n3×10^4 U87T cells, 3×10^5 U87R cells or 5×10^4 BTICs were injected in a 3 μL volume into one brain hemisphere of a SCID mouse and allowed to grow for 4, 6 or 12 weeks respectively. […]\n(§1) Serial sections were fixed with cold acetone, and rehydrated through an ethanol gradient. […] Avidin-biotin peroxidase complexes were then formed using the VECTASTAIN Elite ABC kit (Vector Laboratories) and detected by addition of […] […]"}, "[1]": {"assay": "Water solubility of peptide", "format": "physicochemical", "conditions": "three N-terminal residues (KKG) added", "description": "In one aspect, the invention includes a peptide composition for targeting either (i) a highly invasive glioma cells (HIGC) subtype of human GBM cells, e.g., the U87R subtype of U87GM cells, or (ii) a brain tumor initiating cell (BTIC) subtype of human GBM cells, as characterized above. The peptide in the composition is 12-20 amino acid residues in length and contains one of the sequences identified as SEQ ID NOS-1-17, or a sequence that is at least 90% homologous with the given sequence. That is, the peptide has the same sequence as one of SEQ ID NOS: 1-17, or a sequence that differs from the given sequence by at most one amino acid residue. The peptide may contain only the given sequence of amino acids, or may contain additional N- and/or C-terminal residues up to a total of 20 residues. Thus, for example, the peptide corresponding to SEQ ID NO: 7, […] (H10), may have this exact sequence, the same sequence but with a single amino acid substitution, addition or deletion at any of the 12 residue positions, or a peptide having a total of up to eight additional residues at one or both of the N- or C-terminals."}, "[2]": {"system": "BTIC isolates (BTIC 12, 25, 42, 50)", "assay": "Biopanning of phage display library against a mixture of BTIC isolates, sequencing of subclones", "conditions": "BTIC-binding phage subclones; given as n/50 subclones screened"}, "normal stem cells (NSC)": {"system": "normal stem cells (NSC)", "assay": "Staining with biotin-labeled synthetic peptide, confocal, normal stem cells", "format": "binding", "conditions": "not tumorigenic cells", "description": "(§2) Binding specificity of the 7A peptide was assessed with non-target (U87MG; NSC) and target (BTIC) cells using a biotinylated 7A peptide (red) followed by confocal imaging.\n(§3) To confirm the preferential binding of 7A to the BTICs rather than the cells used for subtraction, neurospheres and U87MG cells were stained in suspension with biotin-labeled synthetic peptide. […] Examination of the interaction of all selected peptides across a panel of BTIC lines underscored the heterogeneity within each cell population, and established a platform for correlating the ability to bind particular peptide sequences with either cell behavior or patient outcome.\nSuspended neurospheres: 50 μL of densely suspended neurospheres were stained as described above, except in suspension in an eppendorf tube. The stained neurospheres were mounted in a drop of DAKO mounting media under a coverslip."}, "[3]": {"system": "U251N human glioblastoma line xenografts", "assay": "In vivo phage homing, U251N xenografts", "parameters": "species or system SCID mice", "conditions": "phage perfused, anti-phage immunohistochemistry", "description": "(§4) Cells were injected into the right brain hemisphere of SCID mice and allowed to establish for three months. Mice were then perfused with 7A or A1 (random control) phage for 10 minutes. […] 7A homing was not observed in mice bearing tumors generated from the U251N cell line.\n(§5) 3×10^4 U87T cells, 3×10^5 U87R cells or 5×10^4 BTICs were injected in a 3 μL volume into one brain hemisphere of a SCID mouse and allowed to grow for 4, 6 or 12 weeks respectively. The mice were anaesthetized, then treated with 150 μL of 20% (w/v) mannitol for 15 minutes before injecting 5×10^9 pfu into the brain via the carotid. After allowing the phage to circulate for 10 minutes, unbound phage were flushed out of the circulatory system with 15 mL of PBS injected into the left ventricle after the right atrium was clipped. The brains were harvested, immediately frozen on dry ice and embedded in OCT for sectioning.\nas §1, with “gradient. Endogenous peroxidases in the sections were inactivated with 0.075% H2O2/methanol, and nonspecific binding was blocked with 10% normal goat serum in PBS.” for “gradient.”"}, "[4]": {"system": "implanted GBM tumor from the BT025 cell line", "assay": "In vivo targeting of fluorescent peptide to implanted BT025 tumor, fluorescence microscopy of brain sections", "parameters": "species or system mice", "description": "(§6) In the studies shown in FIGS. 13A and 13B, brain tumors were implanted in mice with a patient-derived BTIC cell line BT025 identified as above by its binding to the 7A peptide. After tumor growth from the implanted cells, the tumors were removed, sectioned and stained for microscopic visualization. In the studies shown in FIGS. 14-19, a fluorescent peptide was administered intravenously, either by intracorotid injection or via tail vein into mice having an implanted GBM tumor from the BT025 cell line (FIGS. 14-17) or the U87MG cell line (FIGS. 18 and 19), and after localization of the peptide, the animal were sacrificed and their brain tumors removed for sectioning and visualization by fluorescence microscopy.\nThe peptide was administered to the mouse via intracarotid injection and allowed to circulate for approximately half an hour to allow clearance of background signal before the mouse was sacrificed and the brain removed for imaging using an Olympus OV100 whole mouse imaging system. By non-magnified inspection, the large outgrowth of the tumor is obvious.\nFIGS. 14B and 14C are lower and higher magnification photomicrographs of a thin section taken from the brain in FIG. 14A after it was bisected close to the tumor implantation site and stained for human nuclear antigen (green) and total DNA (blue) to outline the positioning of the cells. The red peptide signal is visible on cells immediately adjacent to the main tumor mass as well as spread diffusely in the surrounding tissue."}, "[5]": {"system": "BTIC lines (neurospheres)", "assay": "Staining with biotin-labeled synthetic peptide, confocal, BTIC neurospheres", "format": "binding, human", "conditions": "neurospheres stained in suspension", "description": "as §2, §3\n(§7) Adherent cells: 13 mm coverslips were coated with neutralized 3 mg/mL Collagen I (PureCol), allowed to dry, then plated with test cells at 1×10^4/mL, 0.5 mL volume and allowed to equilibrate 20 minutes under normal culture conditions. Coverslips were fixed for 10 minutes in 3% formaldehyde in PBS, washed, then incubated in biotinylated peptide (3 mM stock) or primary antibody at a 1:100 dilution in 2% BSA/0.02% Tween 20 in PBS for 1 hour at room temperature. After washing in PBS, secondary antibody or streptavidin-Alexa 568 was applied at a dilution of 1:250 for 1 hour before coverslips were washed and mounted with DAKO mounting media with antifade. […]"}, "U87MG cells": {"system": "U87MG cells", "assay": "Staining with biotin-labeled synthetic peptide, confocal, U87MG", "format": "binding, human", "description": "as §2, §3, §7"}, "[6]": {"system": "BTIC 12 and BTIC 25 xenografts", "assay": "In vivo phage homing, BTIC xenografts, anti-phage immunohistochemistry", "parameters": "species or system SCID mice", "conditions": "phage perfused 10 minutes", "description": "as §4, §5\nas §1, with “gradient. Endogenous peroxidases in the sections were inactivated with 0.075% H2O2/methanol, and nonspecific binding was blocked with 10% normal goat serum in PBS.” for “gradient.”"}, "U87T (main tumor) cells": {"system": "U87T (main tumor) cells", "assay": "Peptide binding to U87T cells", "parameters": "species or system human"}, "[7]": {"system": "implanted GBM tumor from the U87MG cell line", "assay": "In vivo targeting of fluorescent peptide to implanted U87MG tumor, fluorescence microscopy of brain sections", "parameters": "species or system mice", "description": "as §6\nFIGS. 18A and 18B-18D show similar views, where the animal was injected with a fluorescently labeled modified H10 peptide (SEQ ID NO: 17, preferential for HIGC binding), in animals carrying a tumor initiated with the U87MG human glioblastoma cell line. For these studies, the tumors were not grown as large, and a far-red fluorescent signal is not obvious from inspection without sectioning (FIG. 18A).\nFIGS. 19A and 19B and 19D show similar views, where the animal was injected with a fluorescently labeled modified E10 peptide (SEQ ID NO: 13, which binds to both BTIC's and HIGC's), in animals carrying a tumor initiated with the U87MG human glioblastoma cell line. […]"}, "U87R (HIGC) cells": {"system": "U87R (HIGC) cells", "assay": "Peptide binding to U87R cells", "parameters": "species or system human"}}, "note": "Entries after “also recorded” stand apart in the source; their conditions may differ. Peptide text beside a SMILES is read from it."}
{"compound": "CC[C@H](C)[C@H](NC(=O)[C@H](CO)NC(=O)[C@H](CC(N)=O)NC(=O)[C@@H](N)[C@@H](C)O)C(=O)N[C@@H](Cc1c[nH]c2ccccc12)C(=O)N[C@@H](Cc1ccc(O)cc1)C(=O)N[C@H](C(=O)N[C@@H](C)C(=O)N1CCC[C@H]1C(=O)N[C@@H](Cc1ccc(O)cc1)C(=O)N[C@@H](CCSC)C(=O)N[C@@H](Cc1ccccc1)C(=O)O)[C@@H](C)O", "note": "[H10] (H-TNSIWYTAPYMF-OH; N-terminus and C-terminus assumed)", "values": [{"measurement": "crossing of the blood brain barrier (BBB)", "setting": "U87R xenografts", "result": "has the ability to cross the blood brain barrier"}]}
{"compound": "CC[C@H](C)[C@H](NC(=O)[C@H](CO)NC(=O)[C@H](CC(N)=O)NC(=O)[C@@H](NC(=O)CNC(=O)[C@H](CCCCN)NC(=O)[C@@H](N)CCCCN)[C@@H](C)O)C(=O)N[C@@H](Cc1c[nH]c2ccccc12)C(=O)N[C@@H](Cc1ccc(O)cc1)C(=O)N[C@H](C(=O)N[C@@H](C)C(=O)N1CCC[C@H]1C(=O)N[C@@H](Cc1ccc(O)cc1)C(=O)N[C@@H](CCSC)C(=O)N[C@@H](Cc1ccccc1)C(=O)O)[C@@H](C)O", "note": "[modified H10] (H-KKGTNSIWYTAPYMF-OH; N-terminus and C-terminus assumed)", "values": [{"measurement": "water solubility relative to H10 peptide", "setting": "[1]", "result": "substantially more water soluble"}]}
{"compound": "PSPHRQRQHILR (synthetic BTIC targeting peptide) [7A]", "values": [{"measurement": "number of phage subclones containing that sequence", "setting": "[2]", "result": "25/50"}, {"measurement": "binding of peptide to normal stem cells", "setting": "normal stem cells (NSC)", "result": "predominantly negative"}, {"measurement": "in vivo phage staining of U251N xenografts", "setting": "[3]", "result": "no staining was detected"}, {"measurement": "distribution of fluorescent peptide signal in brain sections", "setting": "[4]; BT025 tumor, intracarotid injection", "result": "binds primarily to cells that are diffusely spread outside the main tumor mass"}, {"measurement": "fluorescent signal in whole brain imaging of tumor", "setting": "[4]; intracarotid injection, approximately half an hour circulation, Olympus OV100", "result": "appears strongly in part of the tumor, but clearly does not detect all tumor cells present"}, {"measurement": "localization of peptide conjugate in human GBM tissue in vivo (summary)", "setting": "[4]; intravenous administration, BT025 tumor (general statements also cover U87MG tumors)", "result": "can localize in human GBM tissue in vivo"}, {"measurement": "binding of peptide to BTICs", "setting": "[5]", "result": "high percentage of positive cells within the neurosphere"}, {"measurement": "binding of peptide to U87MG cells", "setting": "U87MG cells", "result": "predominantly negative"}, {"measurement": "in vivo phage staining of BTIC xenografts", "setting": "[6]", "result": "only a subset of cells within the main tumor masses of BTIC 12 and 25 showed positive staining"}]}
{"compound": "SLHMRHKRKPRR (synthetic BTIC targeting peptide) [E10]", "values": [{"measurement": "binding to U87T (main tumor) cells", "setting": "U87T (main tumor) cells", "result": "bind"}, {"measurement": "number of phage subclones containing that sequence", "setting": "[2]", "result": "4/50"}, {"measurement": "distribution of fluorescent peptide signal in brain sections", "setting": "[7]; intracarotid injection", "result": "binds to a portion of cells within the main tumor mass; also recorded: also binds to cells outside of the main tumor mass"}, {"measurement": "localization of peptide conjugate in human GBM tissue in vivo (summary)", "setting": "[7]; intravenous administration", "result": "can localize in human GBM tissue in vivo"}, {"measurement": "binding to U87R (HIGC) cells", "setting": "U87R (HIGC) cells", "result": "bind"}, {"measurement": "binding of peptide to BTICs", "setting": "[5]", "result": "binds"}, {"measurement": "binding of peptide to U87MG cells", "setting": "U87MG cells", "result": "binds"}]}
